Tests used:
microvessels = experiment: Microvessel growth (vessel length) under different culture media, FIG. 13; format: cell-based, human; conditions: medium or supplement used for microvessel culture
Description: FIG. 13 is a graph depicting vessel length (mm) of organoids cultured under a variety of conditions (serum free+VEGF, 10% FBS, RPMI/B-27/VEGF, ADM, AMM, RPMI/B-27+IM, RMPI/B-27+Dex, RPMI/B-27+IBMX).

adipose-like organoids [1] = experiment: Lipolysis assay (glycerol production), 3D organoids; format: cell-based, human; conditions: 1 μM isoproterenol for 4 hours, organoids with and without microvessels
Protocol: A lipolysis assay was performed on 2D (after 24 days of 2D culture) and 3D cultures (after 17 days of 2D and 7 days of 3D culture), using a commercially available kit (Sigma). Samples were treated with 1 μM isoproterenol for 4 hours. For 2D cultures, supernatants were then mixed with the reaction solution and incubated according to manufacturer's instructions. For 3D cultures, organoids were homogenized in the supernatant after isoproterenol incubation using a plastic pestle, to release glycerol trapped inside the organoid. The homogenized sample was briefly centrifuged, and supernatants were used for the remainder of the manufacturer's protocol. Samples were read at 570 nm using a plate reader (BioTek Instruments). For 2D cultures, samples cultured in FBS were used as control samples that will not undergo lipolysis. For 3D samples, negative controls were not treated with isoproterenol.

human microvessels = conditions: 50 ng/ml VEGF in serum free medium, 6 days of culture, versus no VEGF
adipose-like organoids [2] = experiment: TNF-α challenge with IL-6 ELISA; format: cell-based, human; conditions: 50 ng/ml TNF-α, approximately 24 hours, organoids with and without microvessels
Protocol: (§1) Adipose organoids were seeded and cultured as described above. After 7 days of culture, medium was changed from AMM to AMM supplemented with or without 50 ng/ml TNF-α (Peprotech). The following day, organoids were either flash frozen for PCR analysis, fixed for histology, or used for an IL-6 enzyme-linked immunosorbent assay (ELISA).
Organoids with and without microvessels and with or without TNF-α treatment were transferred with their supernatants to micro-centrifuge tubes and briefly homogenized with a plastic pestle. Samples were diluted and centrifuged for 2 minutes at 12,000 rcf to pellet remaining matrix and cell debris. An ELISA was performed with the supernatant following manufacturer instructions (R&D systems) to measure secreted interleukin-6 (IL-6) as a marker of adipocyte inflammation and dysfunction.

adipose-like organoids [3] = experiment: TNF-α challenge with RT-PCR of adipocyte markers; format: cell-based, human; conditions: TNF-α treatment
Protocol: as §1
RNA was extracted from either 2D cultures or 3D organoids using a Qiagen RNeasy Plus Micro kit following manufacturer's protocols. RNA was converted to cDNA with SuperScript™ IV VILO™ Master Mix (Fisher Scientific). cDNA was amplified with human primers (IDT Technologies) listed in Table 1. Primers for insulin receptor were designed using Primer3 software (NIH) and verified using BLAST database (NIH), with gene coding obtained from GenBank (NIH).
Real-time PCR was performed using a SYBER master mix (Fisher Scientific) and CFX96 Real Time System (Bio Rad). Adiponectin and PPAR-γ expression were normalized to GAPDH (IDT Technologies) and compared to either FBS treated controls (2D) or organoids without microvessels (3D). After RT-PCR, amplified cDNA was loaded into a 2% agarose gel and run at 90V. Gels were imaged for SYBER green on a gel scanner (Azure Biosystems).

## CC(C)Cn1c(=O)n(C)c(=O)c2[nH]cnc21 [IBMX, 3-isobutyl-1-methylxanthine]
microvessels
  microvessel growth: permanently impeded microvessel growth

## CC(C)NCC(O)c1ccc(O)c(O)c1 (stereo not drawn) [isoproterenol]
adipose-like organoids [1]
  glycerol production in response to isoproterenol: produced glycerol

## vascular endothelial growth factor [VEGF]
Human microvessels
  vascular growth / vessel density of microvessels: significantly increased vascular growth

## TNF-α
adipose-like organoids [2]
  IL-6 secretion: dramatically increased IL-6 secretion
adipose-like organoids [3]; organoids with microvessels
  adiponectin expression: small but distinct downregulation
adipose-like organoids [3]; organoids with no microvessels
  adiponectin expression: changed minimally

Source: US20220112464A1, “VASCULARIZED ORGANOID MODEL INCORPORATING ISOLATED HUMAN MICROVESSEL FRAGMENTS” (Advanced Solutions Life Sciences, LLC, priority 2020, published 2022)
